Laboratory results taken from paper PMC7449217, “The FDA-Approved Drug Nelfinavir Inhibits Lytic Cell-Free but Not Cell-Associated Nonlytic Transmission of Human Adenovirus” (Antimicrobial Agents and Chemotherapy, 2020).
Counter-ions that a name gives are not always drawn.

Key:
MAdV-3-pIX-FS2A-GFP = assay: fluorescence-based plaque-forming assay, CMT-93 cells; type: cell-based, mouse adenovirus
Method: Per 96-well plate, 15,000 A549 cells, 10,000 HeLa cells, 30,000 HBECs, 30,000 HCE cells, or 30,000 CMT-93 cells were seeded in 100 μl of the respective supplemented medium and allowed to settle for 1 h at room temperature (RT) prior to cell culture incubation at 37°C with 5% CO2 and 95% humidity. The following day, the medium was replaced with 50 μl of the respective virus stock dilution giving rise to 5 to 50 plaques per 96-well plate. Fifty microliters of nelfinavir to obtain a 0.1 to 50 μM final concentration or the DMSO solvent control was also added, both in supplemented medium. For each experiment, a noninfected, treated control was performed. […] Plates were imaged on either an IXM-XL or an IXM-C automated high-throughput fluorescence microscope (Molecular Devices, San Jose, CA, USA) using a 4× objective in wide-field mode. Hoechst staining was recorded in the 4′,6-diamidino-2-phenylindole (DAPI) channel, the fluorescein isothiocyanate (FITC)/GFP channel was acquired for viral GFP, and the tetramethyl rhodamine isothiocyanate (TRITC)/Texas Red channel was acquired for hexon immunofluorescence staining.
The infection phenotype for each well was quantified using Plaque2.0 ([101]). The number of plaques was determined based on the infection signal (viral GFP or hexon immunofluorescence staining). […] The mean TI50 was calculated as the EC50/TC50 ratio of the means. […]

A549 cells = conditions: cited from earlier work
HAdV-B35-pIX-FS2A-GFP = assay: fluorescence-based plaque-forming assay, HBEC; type: cell-based, human adenovirus
Method: (§1) Per 96-well plate, 15,000 A549 cells, 10,000 HeLa cells, 30,000 HBECs, 30,000 HCE cells, or 30,000 CMT-93 cells were seeded in 100 μl of the respective supplemented medium and allowed to settle for 1 h at room temperature (RT) prior to cell culture incubation at 37°C with 5% CO2 and 95% humidity. The following day, the medium was replaced with 50 μl of the respective virus stock dilution giving rise to 5 to 50 plaques per 96-well plate. Fifty microliters of nelfinavir to obtain a 0.1 to 50 μM final concentration or the DMSO solvent control was also added, both in supplemented medium. For each experiment, a noninfected, treated control was performed. For uphill plaque assays, the medium volume was increased to 150 μl with identical virus and drug concentrations. For wash-in/washout experiments, the virus was incubated on cells in supplemented medium for 1 h at 37°C, cells were washed with PBS, and a 100-μl drug dilution in supplemented medium was added. All experiments were performed in four technical replicates or as indicated. Cells were incubated under standard cell culture conditions. At the indicated times postinfection, the cells were fixed, and the nuclei were stained for 1 h at RT by the addition of 33 μl 16% (wt/vol) paraformaldehyde (PFA) and 4 μg/ml Hoechst 33342 (Sigma-Aldrich, St. Louis, MO, USA) in PBS. Cells were washed three times with PBS and stored in PBS supplemented with 0.02% N3 for infections with viruses harboring a GFP transgene. For wild-type (wt) viruses, cells were quenched in PBS supplemented with 50 mM NH4Cl, permeabilized using 0.2% (vol/vol) Triton X-100 in PBS, and blocked with 0.5% (wt/vol) bovine serum albumin (BSA) in PBS. Cells were incubated with 381.7 ng/ml mouse anti-HAdV hexon protein antibody (Mab8052; Sigma-Aldrich, St. Louis, MO, USA) and subsequently stained using 2 μg/ml goat anti-mouse-Alexa Fluor 594 (catalog number A21203 or A32742; Thermo Fisher Scientific, Waltham, MA, USA). Plates were imaged on either an IXM-XL or an IXM-C automated high-throughput fluorescence microscope (Molecular Devices, San Jose, CA, USA) using a 4× objective in wide-field mode. Hoechst staining was recorded in the 4′,6-diamidino-2-phenylindole (DAPI) channel, the fluorescein isothiocyanate (FITC)/GFP channel was acquired for viral GFP, and the tetramethyl rhodamine isothiocyanate (TRITC)/Texas Red channel was acquired for hexon immunofluorescence staining.
(§2) The infection phenotype for each well was quantified using Plaque2.0 ([101]). The number of plaques was determined based on the infection signal (viral GFP or hexon immunofluorescence staining). Nuclei stained with Hoechst were segmented by using CellProfiler ([178]). Infected nuclei were classified based on the median infection signal per nucleus in CellProfiler. Data were plotted, and the EC50 (infected and treated cells), the TC50 (noninfected, treated cells), as well as the corresponding standard errors (SE) were determined using curve fitting in GraphPad (version 8.1.2; GraphPad Software, Inc.) using three-parameter inhibitor concentration-versus-response nonlinear regression. The mean TI50 was calculated as the […] ratio of the means. The TI50 SE was calculated by error propagation.

HAdV-C2-dE3B-GFP-dADP = assay: fluorescence-based plaque-forming assay, HBEC; type: cell-based, human adenovirus; conditions: for TI50 (TC50/IC50): HAdV-C2-dE3B-GFP-dADP in HBEC, 4 dpi, GFP
Method: as §1, §2

HAdV-C2-dE3B-GFP = assay: fluorescence-based plaque-forming assay, HBEC; type: cell-based, human adenovirus; conditions: for TI50 (TC50/IC50): HAdV-C2-dE3B-GFP in HBEC, 4 dpi, GFP
Method: as §1, §2

HAdV-B3-pIX-FS2A-GFP = assay: fluorescence-based plaque-forming assay, HBEC; type: cell-based, human adenovirus
Method: as §1, §2

## Cc1c(O)cccc1C(=O)N[C@@H](CSc1ccccc1)[C@H](O)CN1C[C@H]2CCCC[C@H]2C[C@H]1C(=O)NC(C)(C)C [Nelfinavir, Nelfinavir mesylate]
MAdV-3-pIX-FS2A-GFP; MAdV-3-pIX-FS2A-GFP in CMT-93, 4 dpi, GFP
  TI50 (TC50/IC50): 3.00
MAdV-3-pIX-FS2A-GFP; Murine mastadenovirus A, CMT93
  EC50: 8.7 µM
A549 cells
  Toxic: no
HAdV-B35-pIX-FS2A-GFP; HAdV-B35-pIX-FS2A-GFP in HBEC, 6 dpi, GFP
  TI50 (TC50/IC50): 1.91
HAdV-B35-pIX-FS2A-GFP; Human adenovirus sp.
  EC50: 6.99 µM
HAdV-C2-dE3B-GFP-dADP
  TI50 (TC50/IC50): 4.56
HAdV-C2-dE3B-GFP-dADP; listed as nelfinavir
  TI50 (TC50/IC50): 4.6
HAdV-C2-dE3B-GFP-dADP; Human adenovirus sp.
  EC50: 2.72 µM
HAdV-C2-dE3B-GFP
  TI50 (TC50/IC50): 55.18
HAdV-C2-dE3B-GFP; listed as nelfinavir
  TI50 (TC50/IC50): 55.2
HAdV-C2-dE3B-GFP; Human adenovirus sp.
  EC50: 0.53 µM
HAdV-B3-pIX-FS2A-GFP; HAdV-B3-pIX-FS2A-GFP in HBEC, 8 dpi, GFP
  TI50 (TC50/IC50): 1.99
HAdV-B3-pIX-FS2A-GFP; Human adenovirus sp.
  EC50: 6.41 µM
